Assay results: US8053553B2, “Targeting host proteinases as a therapeutic strategy against viral and bacterial pathogens” (Socpra Sciences Sante Et Humaines, priority 2007, dated 2011)
Non-standard residues stand in square brackets, D forms with d. Residues, ends and D or L forms follow the SMILES beside them. Sar = CNCC(=O)O

Biological target: T1, furin (Homo sapiens, UniProt P09958)
T1 construct: made in house; host or cells: Drosophila S2 cells (Invitrogen expression system)
Assay: biochemical
Settings: furin, Pyr-RTKR-AMC substrate; N-terminal deletions (Example 2, Table 6); read-out: Ki

T1 sequence (P09958 108-794 limits assumed): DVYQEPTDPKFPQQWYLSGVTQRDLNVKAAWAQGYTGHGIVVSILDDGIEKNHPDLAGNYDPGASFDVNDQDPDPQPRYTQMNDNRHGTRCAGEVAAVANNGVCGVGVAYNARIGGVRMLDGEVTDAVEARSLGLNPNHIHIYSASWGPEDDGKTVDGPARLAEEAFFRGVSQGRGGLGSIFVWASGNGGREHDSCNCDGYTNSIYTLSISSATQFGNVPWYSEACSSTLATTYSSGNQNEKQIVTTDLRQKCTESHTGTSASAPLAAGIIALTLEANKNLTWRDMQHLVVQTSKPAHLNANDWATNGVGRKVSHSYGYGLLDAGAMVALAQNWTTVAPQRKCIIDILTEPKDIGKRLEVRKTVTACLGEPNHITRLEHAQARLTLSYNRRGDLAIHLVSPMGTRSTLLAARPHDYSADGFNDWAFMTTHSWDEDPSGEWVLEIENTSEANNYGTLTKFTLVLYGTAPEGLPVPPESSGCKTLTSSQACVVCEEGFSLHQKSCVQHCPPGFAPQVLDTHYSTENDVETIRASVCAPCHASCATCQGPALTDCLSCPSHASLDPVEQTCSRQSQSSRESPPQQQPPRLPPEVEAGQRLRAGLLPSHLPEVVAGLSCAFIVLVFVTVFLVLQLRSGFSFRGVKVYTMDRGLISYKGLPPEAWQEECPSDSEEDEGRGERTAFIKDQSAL

Structure (SMILES)	Ki
C[C@@H](O)[C@H](NC(=O)[C@H](CCCNC(=N)N)NC(=O)[C@H](CCCCN)NC(=O)[C@H](CCCCN)NC(=O)[C@@H](N)CCCNC(=N)N)C(N)=O [RKKRT] (H-RKKRT-NH2)	1000 nM

Same assay, conditions: furin, Pyr-RTKR-AMC substrate; alanine scanning mutagenesis of the H5 furin cleavage sequence (Table 2); read-out: Ki

Structure (SMILES)	Ki
CC(C)[C@H](NC(=O)[C@H](CCCNC(=N)N)NC(=O)[C@H](CCCCN)NC(=O)[C@H](CCCCN)NC(=O)[C@H](CCCNC(=N)N)NC(=O)[C@H](CCCNC(=N)N)NC(=O)[C@H](CCCNC(=N)N)NC(=O)[C@H](CCC(=O)O)NC(=O)[C@H](CCCNC(=N)N)NC(=O)[C@H](C)NC(=O)[C@@H](N)[C@@H](C)O)C(N)=O (H-TARERRRKKRV-NH2)	> 100 nM
C[C@@H](O)[C@H](N)C(=O)N1CCC[C@H]1C(=O)N[C@@H](CCCNC(=N)N)C(=O)N[C@@H](CCC(=O)O)C(=O)N[C@@H](CCCNC(=N)N)C(=O)N[C@@H](CCCNC(=N)N)C(=O)N[C@@H](CCCNC(=N)N)C(=O)N[C@@H](CCCCN)C(=O)N[C@@H](CCCCN)C(=O)N[C@@H](CCCNC(=N)N)C(=O)N(C)CC(N)=O (H-TPRERRRKKR[Sar]-NH2)	> 100 nM
C[C@H](NC(=O)[C@H](CCCNC(=N)N)NC(=O)[C@H](CCC(=O)O)NC(=O)[C@H](CCCNC(=N)N)NC(=O)[C@@H]1CCCN1C(=O)[C@@H](N)[C@@H](C)O)C(=O)N[C@@H](CCCNC(=N)N)C(=O)N[C@@H](CCCCN)C(=O)N[C@@H](CCCCN)C(=O)N[C@@H](CCCNC(=N)N)C(=O)N(C)CC(N)=O (H-TPRERARKKR[Sar]-NH2)	> 100 nM
C[C@H](NC(=O)[C@H](C)NC(=O)[C@H](CCCNC(=N)N)NC(=O)[C@@H]1CCCN1C(=O)[C@@H](N)[C@@H](C)O)C(=O)N[C@@H](CCCNC(=N)N)C(=O)N[C@@H](CCCNC(=N)N)C(=O)N[C@@H](CCCCN)C(=O)N[C@@H](CCCCN)C(=O)N[C@@H](CCCNC(=N)N)C(N)=O (H-TPRAARRKKR-NH2)	> 100 nM
C[C@H](NC(=O)[C@H](C)NC(=O)[C@@H]1CCCN1C(=O)[C@@H](N)[C@@H](C)O)C(=O)N[C@@H](C)C(=O)N[C@@H](CCCNC(=N)N)C(=O)N[C@@H](CCCNC(=N)N)C(=O)N[C@@H](CCCCN)C(=O)N[C@@H](CCCCN)C(=O)N[C@@H](CCCNC(=N)N)C(=O)N(C)CC(N)=O (H-TPAAARRKKR[Sar]-NH2)	> 100 nM
C[C@H](NC(=O)[C@@H](N)[C@@H](C)O)C(=O)N[C@@H](CCCNC(=N)N)C(=O)N[C@@H](CCC(=O)O)C(=O)N[C@@H](CCCNC(=N)N)C(=O)N[C@@H](CCCNC(=N)N)C(=O)N[C@@H](CCCNC(=N)N)C(=O)N[C@@H](CCCCN)C(=O)N[C@@H](CCCCN)C(=O)N[C@@H](CCCNC(=N)N)C(=O)N[C@@H](CO)C(N)=O (H-TARERRRKKRS-NH2)	> 100 nM
C[C@H](NC(=O)[C@@H]1CCCN1C(=O)[C@@H](N)[C@@H](C)O)C(=O)N[C@@H](CCC(=O)O)C(=O)N[C@@H](CCCNC(=N)N)C(=O)N[C@@H](CCCNC(=N)N)C(=O)N[C@@H](CCCNC(=N)N)C(=O)N[C@@H](CCCCN)C(=O)N[C@@H](CCCCN)C(=O)N[C@@H](CCCNC(=N)N)C(N)=O (H-TPAERRRKKR-NH2)	> 100 nM
C[C@H](NC(=O)[C@H](CCCCN)NC(=O)[C@H](CCCNC(=N)N)NC(=O)[C@H](CCCNC(=N)N)NC(=O)[C@H](CCCNC(=N)N)NC(=O)[C@H](CCC(=O)O)NC(=O)[C@H](CCCNC(=N)N)NC(=O)[C@@H]1CCCN1C(=O)[C@@H](N)[C@@H](C)O)C(=O)N[C@@H](CCCNC(=N)N)C(N)=O (H-TPRERRRKAR-NH2)	> 100 nM
C[C@H](NC(=O)[C@H](C)NC(=O)[C@H](CCCNC(=N)N)NC(=O)[C@@H]1CCCN1C(=O)[C@@H](N)[C@@H](C)O)C(=O)N[C@@H](CCCNC(=N)N)C(=O)N[C@@H](CCCNC(=N)N)C(=O)N[C@@H](CCCCN)C(=O)N[C@@H](CCCCN)C(=O)N[C@@H](CCCNC(=N)N)C(=O)NCC(N)=O (H-TPRAARRKKRG-NH2)	> 100 nM
C[C@H](NC(=O)[C@H](C)NC(=O)[C@@H](N)[C@@H](C)O)C(=O)N[C@@H](CCC(=O)O)C(=O)N[C@@H](CCCNC(=N)N)C(=O)N[C@@H](CCCNC(=N)N)C(=O)N[C@@H](CCCNC(=N)N)C(=O)N[C@@H](CCCCN)C(=O)N[C@@H](CCCCN)C(=O)N[C@@H](CCCNC(=N)N)C(=O)N(C)CC(N)=O (H-TAAERRRKKR[Sar]-NH2)	> 100 nM
C[C@H](NC(=O)[C@H](C)NC(=O)[C@H](CCCCN)NC(=O)[C@H](CCCNC(=N)N)NC(=O)[C@H](CCCNC(=N)N)NC(=O)[C@H](CCCNC(=N)N)NC(=O)[C@H](CCC(=O)O)NC(=O)[C@H](CCCNC(=N)N)NC(=O)[C@@H]1CCCN1C(=O)[C@@H](N)[C@@H](C)O)C(N)=O (H-TPRERRRKAA-NH2)	> 100 nM
C[C@H](NC(=O)[C@H](C)NC(=O)[C@@H]1CCCN1C(=O)[C@@H](N)[C@@H](C)O)C(=O)N[C@@H](CCCNC(=N)N)C(=O)N[C@@H](CCCNC(=N)N)C(=O)N[C@@H](CCCNC(=N)N)C(=O)N[C@@H](CCCCN)C(=O)N[C@@H](CCCCN)C(=O)N[C@@H](CCCNC(=N)N)C(=O)NCC(N)=O (H-TPAARRRKKRG-NH2)	> 100 nM
CC(C)[C@H](NC(=O)[C@H](CCCNC(=N)N)NC(=O)[C@H](CCCCN)NC(=O)[C@H](CCCCN)NC(=O)[C@H](CCCNC(=N)N)NC(=O)[C@H](CCCNC(=N)N)NC(=O)[C@H](CCCNC(=N)N)NC(=O)[C@H](CCC(=O)O)NC(=O)[C@H](CCCNC(=N)N)NC(=O)[C@H](C)NC(=O)[C@H](C)N)C(N)=O (H-AARERRRKKRV-NH2)	> 100 nM
CC(C)[C@H](NC(=O)[C@H](CCCNC(=N)N)NC(=O)[C@H](CCCCN)NC(=O)[C@H](CCCCN)NC(=O)[C@H](CCCNC(=N)N)NC(=O)[C@H](CCCNC(=N)N)NC(=O)[C@H](C)NC(=O)[C@H](C)NC(=O)[C@H](C)NC(=O)[C@@H]1CCCN1C(=O)[C@@H](N)[C@@H](C)O)C(N)=O (H-TPAAARRKKRV-NH2)	> 100 nM
C[C@H](NC(=O)[C@H](C)NC(=O)[C@H](CCCNC(=N)N)NC(=O)[C@H](CCCNC(=N)N)NC(=O)[C@H](CCC(=O)O)NC(=O)[C@H](CCCNC(=N)N)NC(=O)[C@@H]1CCCN1C(=O)[C@@H](N)[C@@H](C)O)C(=O)N[C@@H](CCCCN)C(=O)N[C@@H](CCCNC(=N)N)C(=O)N(C)CC(N)=O (H-TPRERRAAKR[Sar]-NH2)	> 100 nM

Same assay, conditions: furin, Pyr-RTKR-AMC substrate; optimization of the inhibitory peptides (Table 3); read-out: Ki

Structure (SMILES)	Ki
C[C@@H](O)[C@H](N)C(=O)N1CCC[C@H]1C(=O)N[C@@H](CCC(N)=O)C(=O)N[C@@H](CCCNC(=N)N)C(=O)NCCCCCC(=O)N[C@@H](CCCNC(=N)N)C(=O)N[C@@H](CCCNC(=N)N)C(=O)N[C@@H](CCCNC(=N)N)C(=O)N[C@@H](CCCCN)C(=O)N[C@@H](CCCCN)C(=O)N[C@@H](CCCNC(=N)N)C(=O)NCC(N)=O [TPQR2RRRKKRG]	> 100 nM
C[C@@H](O)[C@H](N)C(=O)N1CCC[C@H]1C(=O)N[C@@H](CCC(N)=O)C(=O)N[C@@H](CCCNC(=N)N)C(=O)N[C@H](CCCCN)C(=O)N[C@@H](CCCNC(=N)N)C(=O)N[C@@H](CCCNC(=N)N)C(=O)N[C@@H](CCCNC(=N)N)C(=O)N[C@@H](CCCCN)C(=O)N[C@@H](CCCCN)C(=O)N[C@@H](CCCNC(=N)N)C(=O)NCC(N)=O [TPQRkRRRKKRG]	> 100 nM
C[C@@H](O)[C@H](N)C(=O)N1CCC[C@H]1C(=O)N[C@@H](CCC(N)=O)C(=O)N[C@@H](CCCNC(=N)N)C(=O)N[C@@H](Cc1ccccc1)C(=O)N[C@@H](CCCNC(=N)N)C(=O)N[C@@H](CCCNC(=N)N)C(=O)N[C@@H](CCCNC(=N)N)C(=O)N[C@@H](CCCCN)C(=O)N[C@@H](CCCCN)C(=O)N[C@@H](CCCNC(=N)N)C(=O)NCC(N)=O (H-TPQRFRRRKKRG-NH2)	> 100 nM
C[C@@H](O)[C@H](N)C(=O)N1CCC[C@H]1C(=O)N[C@@H](CCC(N)=O)C(=O)N[C@@H](CCCNC(=N)N)C(=O)N[C@@H](CCCCN)C(=O)N[C@@H](CCCNC(=N)N)C(=O)N[C@@H](CCCNC(=N)N)C(=O)N[C@@H](CCCNC(=N)N)C(=O)N[C@@H](CCCCN)C(=O)N[C@@H](CCCCN)C(=O)N[C@@H](CCCNC(=N)N)C(=O)NCC(N)=O	> 100 nM
C[C@@H](O)[C@H](N)C(=O)N1CCC[C@H]1C(=O)N[C@@H](CCCN=C(N)N)C(=O)NCC(=O)N[C@@H](CCCN=C(N)N)C(=O)N[C@@H](CCCN=C(N)N)C(=O)N[C@@H](CCCN=C(N)N)C(=O)N[C@@H](CCCCN)C(=O)N[C@@H](CCCCN)C(=O)N[C@@H](CCCN=C(N)N)C(=O)NCC(N)=O (H-TPRGRRRKKRG-NH2)	47 nM
C[C@@H](O)[C@H](N)C(=O)N1CCC[C@H]1C(=O)N[C@@H](CCC(N)=O)C(=O)N[C@@H](CCCNC(=N)N)C(=O)N[C@@H](CCC(N)=O)C(=O)N[C@@H](CCCNC(=N)N)C(=O)N[C@@H](CCCNC(=N)N)C(=O)N[C@@H](CCCNC(=N)N)C(=O)N[C@@H](CCCCN)C(=O)N[C@@H](CCCCN)C(=O)N[C@@H](CCCNC(=N)N)C(=O)NCC(N)=O (H-TPQRQRRRKKRG-NH2)	> 100 nM
C[C@H](NC(=O)[C@H](CCCNC(=N)N)NC(=O)[C@H](CCC(N)=O)NC(=O)[C@@H]1CCCN1C(=O)[C@@H](N)[C@@H](C)O)C(=O)N[C@@H](CCCNC(=N)N)C(=O)N[C@@H](CCCNC(=N)N)C(=O)N[C@@H](CCCNC(=N)N)C(=O)N[C@@H](CCCCN)C(=O)N[C@@H](CCCCN)C(=O)N[C@H](CCCNC(=N)N)C(=O)NCC(N)=O	> 100 nM
C[C@H](NC(=O)[C@H](CCCNC(=N)N)NC(=O)[C@H](CCC(N)=O)NC(=O)[C@@H]1CCCN1C(=O)[C@@H](N)[C@@H](C)O)C(=O)N[C@@H](CCCNC(=N)N)C(=O)N[C@@H](CCCNC(=N)N)C(=O)N[C@@H](CCCNC(=N)N)C(=O)N[C@@H](CCCCN)C(=O)N[C@@H](CCCCN)C(=O)N[C@@H](CCCNC(=N)N)C(=O)N[C@@H](Cc1c[nH]c2ccccc12)C(N)=O (H-TPQRARRRKKRW-NH2)	34 nM
C[C@H](NC(=O)[C@H](CCCNC(=N)N)NC(=O)[C@H](CCC(N)=O)NC(=O)[C@@H]1CCCN1C(=O)[C@@H](N)[C@@H](C)O)C(=O)N[C@@H](CCCNC(=N)N)C(=O)N[C@@H](CCCNC(=N)N)C(=O)N[C@@H](CCCNC(=N)N)C(=O)N[C@@H](CCCCN)C(=O)N[C@@H](CCCCN)C(=O)N[C@@H](CCCNC(=N)N)C(=O)N[C@@H](Cc1c[nH]cn1)C(N)=O (H-TPQRARRRKKRH-NH2)	> 100 nM

Same assay, conditions: read-out: Ki

Structure (SMILES)	Ki
C[C@H](NC(=O)[C@H](CCCNC(=N)N)NC(=O)[C@@H]1CCCN1C(=O)[C@@H](N)[C@@H](C)O)C(=O)N[C@@H](CCCNC(=N)N)C(=O)N[C@@H](CCCNC(=N)N)C(=O)N[C@@H](CCCNC(=N)N)C(=O)N[C@@H](CCCCN)C(=O)N[C@@H](CCCCN)C(=O)N[C@@H](CCCNC(=N)N)C(=O)N[C@@H](CC(=O)O)C(N)=O	56 nM
